The IC50 is the concentration that gives 50% inhibition.

In PubChem BioAssay AID602305 (The Scripps Research Institute Molecular Screening Center, 2012) one finds IC50 data, which are given here for one compound.

The structures appear in SMILES notation. Calls of active or inactive are those of the source. No rule for the calls is given here.

This test concerns cell line, cAMP TR-FRET counterscreen, inhibition. Briefly: dose response, counter-screen, cell-based (AID 602305). For orientation: The purpose of a counterscreen is to sort out artefacts and off-target activity.

As for `CCOP(=O)(CCP(=O)(OCC)OCC)OCC.C[CH2][Sn]([Cl])([Cl])[CH2]C`, the IC50 was > 64.5 µM (inactive).
